Experimental data taken from ChEMBL document CHEMBL1201862, “PubChem BioAssay data set” (2004).
Active and inactive are the calls of the source.

Experiments:
Estrogen receptor = target: T1, Estrogen receptor (Homo sapiens, UniProt P03372);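 further: potency for inhibiting coactivator peptide recruitment to the receptor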
T1 sequence (P03372 whole entry): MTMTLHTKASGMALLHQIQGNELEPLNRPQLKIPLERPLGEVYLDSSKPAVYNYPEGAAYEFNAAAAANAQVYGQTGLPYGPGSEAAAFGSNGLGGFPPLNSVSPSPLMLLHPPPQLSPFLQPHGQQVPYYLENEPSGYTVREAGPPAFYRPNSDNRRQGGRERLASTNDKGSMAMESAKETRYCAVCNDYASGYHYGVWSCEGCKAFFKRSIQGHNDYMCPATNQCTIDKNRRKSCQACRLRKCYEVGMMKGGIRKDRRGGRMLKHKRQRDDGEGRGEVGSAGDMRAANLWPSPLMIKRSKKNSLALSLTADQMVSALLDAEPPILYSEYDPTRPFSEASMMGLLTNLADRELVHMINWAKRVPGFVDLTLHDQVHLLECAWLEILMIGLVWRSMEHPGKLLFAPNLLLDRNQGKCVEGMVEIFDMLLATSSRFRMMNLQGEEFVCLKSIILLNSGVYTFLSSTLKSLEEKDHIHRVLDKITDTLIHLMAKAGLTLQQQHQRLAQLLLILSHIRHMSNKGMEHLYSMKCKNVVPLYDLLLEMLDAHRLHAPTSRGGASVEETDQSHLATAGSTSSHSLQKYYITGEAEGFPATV

Cytochrome P450 1A2 = target: T2, Cytochrome P450 1A2 (Homo sapiens, UniProt P05177);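 further: PubChem cytochrome P450 panel assay, CYP1A2 panel member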
T2 sequence (P05177 whole entry): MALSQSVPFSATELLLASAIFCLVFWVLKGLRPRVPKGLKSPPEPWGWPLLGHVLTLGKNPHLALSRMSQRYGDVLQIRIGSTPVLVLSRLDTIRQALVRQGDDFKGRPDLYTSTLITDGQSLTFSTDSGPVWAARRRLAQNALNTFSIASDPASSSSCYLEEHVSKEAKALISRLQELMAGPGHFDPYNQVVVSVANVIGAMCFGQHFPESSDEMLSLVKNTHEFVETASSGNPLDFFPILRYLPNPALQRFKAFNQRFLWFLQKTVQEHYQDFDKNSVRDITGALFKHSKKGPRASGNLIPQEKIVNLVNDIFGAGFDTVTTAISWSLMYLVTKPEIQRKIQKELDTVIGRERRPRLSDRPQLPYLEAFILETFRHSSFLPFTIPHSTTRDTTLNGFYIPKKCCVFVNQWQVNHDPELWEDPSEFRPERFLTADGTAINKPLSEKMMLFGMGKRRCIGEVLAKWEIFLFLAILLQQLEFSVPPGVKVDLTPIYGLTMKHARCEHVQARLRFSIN

Cytochrome P450 3A4 = Cytochrome P450 3A4 (Homo sapiens, UniProt P08684);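 further: CYP3A4 tested as one member of a cytochrome P450 panel screen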
Cytochrome P450 3A4, sequence (P08684 whole entry): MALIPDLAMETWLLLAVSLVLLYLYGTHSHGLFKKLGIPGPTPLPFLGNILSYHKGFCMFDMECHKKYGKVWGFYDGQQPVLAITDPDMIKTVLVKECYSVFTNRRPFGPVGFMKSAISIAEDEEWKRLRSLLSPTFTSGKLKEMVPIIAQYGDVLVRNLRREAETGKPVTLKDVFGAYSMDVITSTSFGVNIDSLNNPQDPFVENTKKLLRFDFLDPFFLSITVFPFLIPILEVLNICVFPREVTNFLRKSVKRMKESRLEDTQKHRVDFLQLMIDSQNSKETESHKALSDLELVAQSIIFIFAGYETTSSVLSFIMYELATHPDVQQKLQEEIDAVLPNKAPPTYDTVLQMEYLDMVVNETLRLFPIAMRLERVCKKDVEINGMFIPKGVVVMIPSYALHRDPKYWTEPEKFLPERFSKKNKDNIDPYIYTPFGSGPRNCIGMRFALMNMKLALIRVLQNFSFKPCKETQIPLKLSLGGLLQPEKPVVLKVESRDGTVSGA

Cytochrome P450 2C9 = Cytochrome P450 2C9 (Homo sapiens, UniProt P11712)
Cytochrome P450 2C9, sequence (P11712 whole entry): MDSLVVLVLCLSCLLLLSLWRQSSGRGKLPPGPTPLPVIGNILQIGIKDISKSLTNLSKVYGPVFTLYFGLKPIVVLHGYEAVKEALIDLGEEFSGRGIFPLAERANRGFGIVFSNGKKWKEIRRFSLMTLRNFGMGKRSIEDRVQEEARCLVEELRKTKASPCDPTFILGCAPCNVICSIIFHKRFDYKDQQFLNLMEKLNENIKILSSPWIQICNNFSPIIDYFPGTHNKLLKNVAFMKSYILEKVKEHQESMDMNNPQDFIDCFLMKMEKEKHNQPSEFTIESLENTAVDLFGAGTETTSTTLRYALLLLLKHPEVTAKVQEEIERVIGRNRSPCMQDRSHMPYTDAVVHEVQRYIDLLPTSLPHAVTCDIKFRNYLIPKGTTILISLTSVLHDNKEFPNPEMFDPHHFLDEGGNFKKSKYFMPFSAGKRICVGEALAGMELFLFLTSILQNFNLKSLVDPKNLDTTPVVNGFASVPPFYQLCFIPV

[1] = Luminescence Cell-Based Dose Confirmation HTS to Identify Activators of 5'UTR Stem-Loop Driven Alpha-Synuclein mRNA Translation in H4 Neuroglioblastoma Cells. [Related pubchem assays: 1829 (Project Summary), 1814 (Primary HTS)]; format: functional
[2] = Luminescence Cell-Based Dose Response HTS to Identify Activators of Luciferase Translation or Activity in H4 […] Cells. [Related pubchem assays: 1829 (Project Summary), 1814 (Primary HTS)]; format: functional
H4 = experiment: Luminescence Cell-Based Dose Response HTS to Identify Activators of 5'UTR Stem-Loop Driven Prion Protein mRNA Translation in H4 Neuroglioblastoma Cells. [Related pubchem assays: 1829 (Project Summary), 1814 (Primary HTS)]; format: functional; settings: Homo sapiens
Protein Tat = Protein Tat (Human immunodeficiency virus type 1 group M subtype B (isolate HXB2)(HIV-1), UniProt P04608); format: functional;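 further: tat binding to TAR RNA read out by fluorescence polarization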
Protein Tat, sequence (P04608 whole entry): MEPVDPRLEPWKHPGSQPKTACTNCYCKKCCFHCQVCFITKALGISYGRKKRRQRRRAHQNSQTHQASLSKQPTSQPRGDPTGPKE

[3] = P. falciparum late gametocyte killing, dose response, luminescence (AID 1117278); format: functional, cell-based;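 further: gametocytes exposed to compound for 24 hours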
[4] = Jurkat T cell cytotoxicity, dose response, cytotoxicity control for P. falciparum gametocyte viability project, luminescence (AID 1117277); format: functional, cell-based;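 further: potency reflects loss of cellular ATP meaning fewer viable cells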
Estrogen receptor beta = Estrogen receptor beta (Homo sapiens, UniProt Q92731); experiment: ERβ–SRC-3 coactivator interaction inhibitors, confirmation, orthogonal assay, biochemical, ELISA, streptavidin-HRP readout (AID 1060)
Estrogen receptor beta, sequence (Q92731 whole entry): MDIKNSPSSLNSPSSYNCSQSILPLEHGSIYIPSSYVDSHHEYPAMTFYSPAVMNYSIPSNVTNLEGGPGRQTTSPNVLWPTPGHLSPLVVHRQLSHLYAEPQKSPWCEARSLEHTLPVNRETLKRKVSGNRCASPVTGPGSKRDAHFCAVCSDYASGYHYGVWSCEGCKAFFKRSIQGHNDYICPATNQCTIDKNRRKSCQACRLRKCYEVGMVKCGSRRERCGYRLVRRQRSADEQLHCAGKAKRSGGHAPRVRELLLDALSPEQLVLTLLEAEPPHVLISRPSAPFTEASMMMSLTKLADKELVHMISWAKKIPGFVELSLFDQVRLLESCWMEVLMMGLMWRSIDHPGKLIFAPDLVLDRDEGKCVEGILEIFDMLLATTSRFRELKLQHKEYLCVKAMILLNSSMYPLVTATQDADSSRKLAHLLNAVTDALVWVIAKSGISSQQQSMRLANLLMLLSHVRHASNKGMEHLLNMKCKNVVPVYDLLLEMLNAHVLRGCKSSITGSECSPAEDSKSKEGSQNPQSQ

[5] = target: Calpain-2 catalytic subunit (Sus scrofa, UniProt P43367); experiment: pig calpain II inhibitor potency, dose response, biochemical, fluorogenic peptide substrate (AID 1420); format: functional
Calpain-2 catalytic subunit, sequence (P43367 whole entry): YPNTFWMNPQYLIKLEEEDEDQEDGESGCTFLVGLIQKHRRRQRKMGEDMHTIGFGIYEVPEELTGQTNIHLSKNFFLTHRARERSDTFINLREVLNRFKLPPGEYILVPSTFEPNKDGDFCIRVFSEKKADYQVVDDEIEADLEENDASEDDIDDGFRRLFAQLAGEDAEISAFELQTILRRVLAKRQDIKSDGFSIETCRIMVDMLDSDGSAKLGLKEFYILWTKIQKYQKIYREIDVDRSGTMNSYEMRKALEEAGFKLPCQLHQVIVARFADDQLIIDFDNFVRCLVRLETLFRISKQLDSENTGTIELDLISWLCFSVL

[6] = inhibitors of intracellular T. cruzi replication, confirmation, NIH3T3 host cells, beta-gal luminescence (AID 2044); format: functional, cell-based;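 further: intracellular parasites grown in NIH/3T3 mouse fibroblasts as host cells; luminescent beta-galactosidase reporter signal from transgenic T. cruzi replicating inside host cells; inhibitors lower the luminescence signal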
[7] = cytotoxicity toward NIH3T3 fibroblasts, dose response, counter-screen, cell-based, ATP luminescence, mouse fibroblasts (AID 2010); format: functional;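 further: cells exposed to compound for about 90 hours before reading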

## Cc1cc(C)n(CC(O)COc2ccccc2)n1 (centres undefined)
Estrogen receptor
  IC50: > 50 µM (not active)
Cytochrome P450 1A2
  AC50: 15.8 µM (inconclusive)
Cytochrome P450 3A4
  AC50: 15.8 µM (inconclusive)
Cytochrome P450 2C9
  AC50: 35.5 nM (inconclusive)

## Cc1ccc2nc3c(cc2c1)CC1(C(=O)N(C)C(=O)N(C)C1=O)C1CCCCN31 (centres undefined)
[1]
  EC50: 35.6 µM (active)
[2]
  EC50: 73.9 µM (active)
H4
  EC50: 12 µM (active)
Protein Tat
  IC50: > 100 µM (active)

## O=C(NCCCN1CCC(Cc2ccccc2)CC1)C1CCN(S(=O)(=O)N2CCC3(CC2)OCCO3)CC1
[3]
  IC50: > 109 µM (inactive)
[4]
  IC50: > 83.3 µM (inactive)

## COc1cccc(/C=C2\N=C(c3c(-c4ccccc4)noc3C)OC2=O)c1OC
Estrogen receptor
  IC50: > 50 µM (not active)

## CC1CCCCN1CC(=O)Nc1sc2c(c1C#N)CCCC2 (centres undefined)
Estrogen receptor beta
  IC50: 30.1 nM (not active)

## CCN(CC)S(=O)(=O)c1ccc(Cl)c(NC(=O)COC(=O)c2cccn2C)c1
[3]
  IC50: > 109 µM (inactive)
[4]
  IC50: > 83.3 µM (inactive)

## Cc1ccc2nc(NC(=O)CN(C)S(=O)(=O)c3cccc4nsnc34)sc2c1
[5]
  IC50: > 50 µM (not active)

## CN(C)CCCNc1ccc(-c2nn(C)c(=O)c3ccccc23)cc1[N+](=O)[O-]
[6]
  EC50: < 100 nM (active)
[7]
  EC50: > 60 µM (not active)
cells
  EC50: 135 nM (active)

## Cc1cccc(OCc2nnc(S)n2C2CCCCC2)c1
[5]
  IC50: 15 µM (not active)
